Data: patent US5708013A, “Pyridine derivative and therapeutic agent for ulcer comprising the same” (priority 1987, dated 1998)

What was measured:
[1] = target: T1, H^+ --K^+ ATPase (Sus scrofa, UniProt P19156); test: H+-K+ ATPase activity inhibition; format: biochemical; conditions: pig gastric fundus gland H+-K+ ATPase; pH 7.40, 37° C., 30 min incubation; compound dissolved in methanol; read-out: inhibitory effect on H+-K+ ATPase activity, IC50
T1 construct: prepared from a gland portion of the gastric fundus of the gastiric mucosa of a fresh pig; from tissue; host or cells: gland portion of the gastric fundus mucosa, fresh pig
T1 sequence (P19156 2-1034 limits assumed): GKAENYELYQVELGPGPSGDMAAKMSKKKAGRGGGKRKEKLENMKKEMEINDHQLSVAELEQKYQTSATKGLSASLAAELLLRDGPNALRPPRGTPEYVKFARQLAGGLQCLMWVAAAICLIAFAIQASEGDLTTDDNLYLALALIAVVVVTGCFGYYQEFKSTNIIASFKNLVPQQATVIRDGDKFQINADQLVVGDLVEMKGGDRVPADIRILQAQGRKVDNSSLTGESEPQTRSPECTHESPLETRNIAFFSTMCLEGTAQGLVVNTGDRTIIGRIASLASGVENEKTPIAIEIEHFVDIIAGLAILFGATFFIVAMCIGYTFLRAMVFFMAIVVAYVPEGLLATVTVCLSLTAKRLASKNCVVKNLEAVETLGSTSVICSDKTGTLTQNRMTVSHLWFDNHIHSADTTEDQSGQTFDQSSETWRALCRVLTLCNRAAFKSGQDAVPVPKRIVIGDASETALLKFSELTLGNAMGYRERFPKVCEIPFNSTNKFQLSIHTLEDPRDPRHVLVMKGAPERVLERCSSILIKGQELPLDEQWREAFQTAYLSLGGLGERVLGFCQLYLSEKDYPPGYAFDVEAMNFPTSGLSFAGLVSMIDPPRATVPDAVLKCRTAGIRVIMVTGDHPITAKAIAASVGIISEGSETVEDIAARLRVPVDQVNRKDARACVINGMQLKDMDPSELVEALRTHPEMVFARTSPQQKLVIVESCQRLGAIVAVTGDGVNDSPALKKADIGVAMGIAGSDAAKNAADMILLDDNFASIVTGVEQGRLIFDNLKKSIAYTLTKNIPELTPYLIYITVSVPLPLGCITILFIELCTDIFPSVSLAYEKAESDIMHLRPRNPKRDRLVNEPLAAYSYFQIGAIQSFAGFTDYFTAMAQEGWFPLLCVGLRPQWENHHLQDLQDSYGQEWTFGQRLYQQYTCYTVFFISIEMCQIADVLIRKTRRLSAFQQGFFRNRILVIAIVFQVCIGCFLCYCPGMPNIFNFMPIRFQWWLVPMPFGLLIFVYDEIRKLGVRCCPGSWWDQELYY
T1 sequence (P18434 whole entry partner): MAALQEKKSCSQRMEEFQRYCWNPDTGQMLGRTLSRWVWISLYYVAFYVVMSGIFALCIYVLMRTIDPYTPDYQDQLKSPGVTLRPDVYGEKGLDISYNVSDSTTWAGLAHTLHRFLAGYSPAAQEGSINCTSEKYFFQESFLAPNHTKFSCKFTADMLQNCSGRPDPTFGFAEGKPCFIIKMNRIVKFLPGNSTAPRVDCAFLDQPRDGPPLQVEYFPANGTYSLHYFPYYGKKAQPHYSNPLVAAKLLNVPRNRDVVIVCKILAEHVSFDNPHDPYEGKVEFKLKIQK
Method: H^+ --K^+ ATPase activity inhibition
(1) Preparation of H^+ --K^+ ATPase:
H^+ --K^+ ATPase was prepared from a gland portion of the gastric fundus of the gastiric mucosa of a fresh pig by the modification of a method of Saccomani et al., Biochem. and Biophys.
(2) Determination of H^+ --K^+ ATPase activity:
The compound of the present invention was incubated in various concentrations together with H^+ --K^+ ATPase and 10 μg/ml of protein in 40 mM of Tris-HCl having a pH value of 7.40 at 37° C. for 30 min. 15 mM of KCl was added thereto. 10 min after the addition, an ATPase reaction was initiated by addition of 3 mM of MgCl2 and ATP. 10 min after the initiation of the reaction, the amount of the released inorganic phosphoric acid was measured according to the method of Yoda and Hokin, Biochem. Biophys.
The test compound was dissolved in methanol prior to use.
The inhibitory effect was determined as follows. The measured value of the test compound was subtracted from the measured value of the control group to determine the difference in the measured values therebetween. The inhibitory effect was calculated as the percentage of the difference relative to the measured value of the control group. In the Table, the inhibitory effect was expressed in terms of IC50.

[2] = reported, prior art; cited from earlier work

Row | Compound | IC50 [1] [µM] | side effects [2]
1 | CN/C(=N/CCSCc1nc[nH]c1C)NC#N [cimetidine] |  | antiandrogenic action or a metabolic enzymatic activity inhibitory action upon liver
2 | CCOCCOc1ccnc(C[S+]([O-])c2nc3ccccc3[nH]2)c1C (centres unmarked) [No. 6] | 2.8 | 
3 | CCOCCOc1ccnc(C[S+]([O-])c2nc3cc(OC)ccc3[nH]2)c1C (centres unmarked) [No. 9] | 3.4 | 
4 | COCCOc1ccnc(C[S+]([O-])c2nc3ccccc3[nH]2)c1C (centres unmarked) [No. 10] | 3.3 | 
5 | COCCOc1ccnc(C[S+]([O-])c2nc3cc(C(F)(F)F)ccc3[nH]2)c1C (centres unmarked) [No. 11] | 1.7 | 
6 | COCCOc1ccnc(C[S+]([O-])c2nc3cc(OC)ccc3[nH]2)c1C (centres unmarked) [No. 12] | 5.6 | 

Now from value to compound, other results behind:

Row | IC50 [1] [µM] | Compound | side effects [2]
7 | 2.2 | CCCCOCCOc1ccnc(C[S+]([O-])c2nc3cc(C)c(C)cc3[nH]2)c1C (centres unmarked) [No. 4] | 
8 | 1.1 | CCCCOCCOc1ccnc(C[S+]([O-])c2nc3cc(C(F)(F)F)ccc3[nH]2)c1C (centres unmarked) [No. 3] | 
9 | 1.8 | CCCCOCCOc1ccnc(C[S+]([O-])c2nc3ccccc3[nH]2)c1C (centres unmarked) | 
10 | 1.8 | CCCCOCCOc1ccnc(C[S+]([O-])c2nc3cc(Cl)ccc3[nH]2)c1C (centres unmarked) [No. 2] | 
11 | 3 | CCCCOCCOc1ccnc(C[S+]([O-])c2nc3cc(OC)ccc3[nH]2)c1C (centres unmarked) [No. 5] | 
